Laboratory results: patent EP4725941A1, “ARYLAMIDE DERIVATIVE HAVING ANTITUMOR ACTIVITY” (priority 2020, dated 2021)

Tests used:
[1] = target: T1, MEK1 (Homo sapiens, UniProt Q02750); assay: MEK1-inhibiting activity, fluorescent polarization method (CRAF/MEK1/ERK2 cascade, IMAP); type: biochemical; conditions: Table 3; read-out: MEK1 IC50
T1 construct: purchased Thermo Fisher Scientific Inc. (MEK1, CRAF); Carna Biosciences, Inc. (ERK2)
Experimental: The MEK1-inhibiting activity of the compounds listed in Table 3 below were evaluated by the fluorescent polarization method as described below.

[2] = target: T2, BRAF (Homo sapiens, UniProt P15056); assay: BRAF-inhibiting activity, time-resolved fluorescence-fluorescence resonance energy transfer assay; type: biochemical; conditions: read-out: BRAF IC50; Table 3
T2 construct: purchased Eurofins Genomics KK; (BRAF); Thermo Fisher Scientific Inc. (MEK1)
T2 sequence (P15056 417-766 limits assumed): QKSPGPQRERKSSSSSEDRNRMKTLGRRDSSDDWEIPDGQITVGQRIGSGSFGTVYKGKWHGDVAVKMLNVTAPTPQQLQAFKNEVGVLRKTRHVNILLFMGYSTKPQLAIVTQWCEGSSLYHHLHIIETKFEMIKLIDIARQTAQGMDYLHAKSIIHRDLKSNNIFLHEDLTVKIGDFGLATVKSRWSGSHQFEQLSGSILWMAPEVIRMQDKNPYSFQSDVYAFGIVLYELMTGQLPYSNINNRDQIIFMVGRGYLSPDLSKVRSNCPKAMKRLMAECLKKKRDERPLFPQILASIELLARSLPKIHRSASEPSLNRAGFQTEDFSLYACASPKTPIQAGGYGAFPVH
Experimental: The BRAF-inhibiting activity of the compounds listed in Table 3 below was evaluated by the time-resolved fluorescence-fluorescence resonance energy transfer assay as described below.

[3] = system: A549; assay: Cell proliferation-inhibiting activity (ATP in viable cells, CellTiter-Glo), A549; type: cell-based, human; conditions: A549, 96 h; human lung cancer cells, 4 days; read-out: A549 IC50
[4] = system: Calu-6; assay: Cell proliferation-inhibiting activity (ATP in viable cells, CellTiter-Glo), Calu-6; type: cell-based, human; conditions: Calu-6, 96 h; human lung cancer cells, 4 days; read-out: Calu-6 IC50
[5] = system: NCI-H2122; assay: Cell proliferation-inhibiting activity (ATP in viable cells, CellTiter-Glo), NCI-H2122; type: cell-based, human; conditions: NCI-H2122, 96 h; human lung cancer cells, 4 days; read-out: NCI-H2122 IC50
[6] = Human liver microsome stability; type: in vitro ADME; conditions: human liver microsomes, pH 7.4

T1 sequence (Q02750 whole entry): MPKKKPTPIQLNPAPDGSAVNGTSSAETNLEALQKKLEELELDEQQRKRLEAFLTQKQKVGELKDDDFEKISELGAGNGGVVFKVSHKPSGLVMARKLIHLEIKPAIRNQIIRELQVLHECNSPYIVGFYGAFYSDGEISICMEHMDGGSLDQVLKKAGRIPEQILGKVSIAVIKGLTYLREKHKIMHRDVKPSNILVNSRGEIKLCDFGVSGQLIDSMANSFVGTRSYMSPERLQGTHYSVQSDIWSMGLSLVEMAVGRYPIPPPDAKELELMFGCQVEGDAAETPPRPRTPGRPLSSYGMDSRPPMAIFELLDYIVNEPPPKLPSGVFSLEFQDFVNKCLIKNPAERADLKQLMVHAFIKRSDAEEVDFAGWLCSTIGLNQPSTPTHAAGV

SMILES | IC50 [1] [nM] | IC50 [2] [nM] | IC50 [3] [nM] | IC50 [4] [nM] | IC50 [5] [nM] | microsomal CLint at 0.99 µM [6] [µL/min/mg]
CCS(=O)(=O)Nc1cccc(Cc2cc(C(=O)NOC)c(Nc3ccc(I)cc3Cl)c(F)c2F)c1F [Compound E-9, 2-(2-chloro-4-iodoanilino)-5-[[3-(ethylsulfonylamino)-2-fluorophenyl]methyl]-3,4-difluoro-N-methoxybenzamide] | 95 | 11 | 7 | 57 | 6 | 13
CCS(=O)(=O)Nc1cccc(Cc2cc(C(=O)NOC(C)(C)C)c(Nc3ccc(I)cc3Cl)c(F)c2F)c1F [Compound E-10, 2-(2-Chloro-4-iodoanilino)-5-[[3-(ethylsulfonylamino)-2-fluorophenyl]methyl]-3.4-difluoro-N-[(2-methylpropan-2-yl)oxy]benzamide] | 84 | 23 | 4 | 27 | 3 | 51
CCS(=O)(=O)Nc1cccc(Cc2cc(C(N)=O)c(Nc3ccc(I)cc3Cl)c(F)c2F)c1F [Compound E-11, 2-(2-Chloro-4-iodoanilino)-5-[[3-(ethylsulfonylamino)-2-fluorophenyl]methyl]-3,4-difluorobenzamide] | 454 | 5 | 6 | 73 | 6 | 11
CC(C)(C)ONC(=O)c1cc(Cc2cccc(NS(=O)(=O)NC3CC3)c2F)c(F)c(F)c1Nc1ccc(I)cc1Cl [Compound E-12, 2-(2-Chloro-4-iodoanilino)-5-[[3-(cyclopropylsulfamoylamino)-2-fluor ophenyl]methyl]-3,4-difluoro-N-[(2-methylpropan-2-yl)oxy]benzamide] | 260 | 17 | 3 | 8 | 2 | 160
NC(=O)c1cc(Cc2cccc(NS(=O)(=O)CC3CC3)c2F)c(F)c(F)c1Nc1ccc(I)cc1F [Compound E-14, 5-[[3-(Cyclopropylmethylsulfonylamino)-2-fluorophenyl]methyl]-3,4-di fluoro-2-(2-fluoro-4-iodoanilino)benzamide] | 343 | 17 | 13 | 71 | 7 | 22
CC1(S(=O)(=O)Nc2cccc(Cc3cc(C(N)=O)c(Nc4ccc(I)cc4F)c(F)c3F)c2F)CC1 [Compound E-16, 3,4-Difluoro-2-(2-fluoro-4-iodoanilino)-5-[[2-fluoro-3-[(1-methylcyclopropyl)sulfonylamino]phenyl]methyl]benzamide] | 352 | 12 | 33 | 87 | 7 | < 1
CC(C)CS(=O)(=O)Nc1cccc(Cc2cc(C(N)=O)c(Nc3ccc(I)cc3F)c(F)c2F)c1F [Compound E-17, 3,4-Difluoro-2-(2-fluoro-4-iodoanilino)-5-[[2-fluoro-3-(2-methylpropylsulfonylamino)phenyl]methyl]benzamide] | 199 | 6 | 31 | 110 | 7 | 24
COCC1(S(=O)(=O)Nc2cccc(Cc3cc(C(N)=O)c(Nc4ccc(I)cc4F)c(F)c3F)c2F)CC1 [Compound E-19] | 332 | 34 | 9 | 87 | 9 | 115
NC(=O)c1cc(Cc2cccc(NS(=O)(=O)C3CC3)c2F)c(F)c(F)c1Nc1ccc(I)cc1F [Compound E-22, 5-[[3-(Cyclopropylsulfonylamino)-2-fluorophenyl]methyl]-3,4-difluoro-2-(2-fluoro-4-iodoanilino)benzamide] | 302 | 4 | 6 | 87 | 3 | 18
